Experimental data published in patent US10681909B2, “Herbicidal triazoles” (FMC Corporation, priority 2014, dated 2020).

Legend:
barnyardgrass [1] = assay: Test A preemergence; format: in vivo, Echinochloa crus-galli; conditions: 0 to 100 scale (0 no effect, 100 complete control)
Procedure, shortened: (§1)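 Test chemicals in a non-phytotoxic solvent with surfactant were applied as a directed soil spray preemergence to seeds sown in loam/sand. Postemergence sprays went to plants 2–10 cm tall at the one- to two-leaf stage. A dash means no result.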

foxtail, giant = assay: Test A preemergence; format: in vivo, Setaria faberii; conditions: 0 to 100 scale (0 no effect, 100 complete control)
Procedure, shortened: as §1

pigweed = assay: Test A postemergence; format: in vivo, Amaranthus retroflexus; conditions: 0 to 100 scale (0 no effect, 100 complete control), approx. 10 d
Procedure, shortened: as §1

wheat = assay: Test A postemergence; format: in vivo, Triticum aestivum; conditions: 0 to 100 scale (0 no effect, 100 complete control), approx. 10 d
Procedure, shortened: as §1

sedge, umbrella = assay: Test B flooded paddy test; format: in vivo, Cyperus difformis; conditions: 250 g ai/ha, applied to paddy water at 2-leaf stage, visual rating after 13 to 15 d, scale 0 (no effect) to 100 (complete control)
Procedure, shortened: (§2)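 Pots were flooded to 3 cm above the soil at treatment, and compounds were applied directly into the paddy water. That depth was held throughout. After 13 to 15 d in a greenhouse, plants were rated visually against untreated controls.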

barnyardgrass [2] = assay: Test B flooded paddy test; format: in vivo, Echinochloa crus-galli; conditions: 250 g ai/ha, applied to paddy water at 2-leaf stage, visual rating after 13 to 15 d, scale 0 (no effect) to 100 (complete control)
Procedure, shortened: as §2

barnyardgrass [3] = assay: Test C preemergence; format: in vivo, Echinochloa crus-galli; conditions: for Plant response rating (scale of 0 to 100 where 0 is no effect and 100 is complete control): Barnyardgrass, preemergence; for Barnyardgrass plant response rating (0 to 100): Preemergence, visual rating after 13 to 15 d
Procedure, shortened: (§3)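 Surfactant-containing, non-phytotoxic solvent formulations of each compound were applied either preemergence to seeds in a loam soil–sand blend or postemergence to plants 2 to 18 cm tall (1- to 4-leaf stage). Postemergence plants were grown in peat moss–vermiculite medium.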

galium = assay: Test C postemergence; format: in vivo, Galium aparine
Procedure, shortened: as §3

corn = assay: Test C postemergence; format: in vivo, Zea mays
Procedure, shortened: as §3

crabgrass, large = assay: Test C postemergence; format: in vivo, Digitaria sanguinalis
Procedure, shortened: as §3

lambsquarters = assay: Test C postemergence; format: in vivo, Chenopodium album
Procedure, shortened: as §3

morningglory = assay: Test C postemergence; format: in vivo, Ipomoea coccinea
Procedure, shortened: as §3

soybean = assay: Test C postemergence; format: in vivo, Glycine max
Procedure, shortened: as §3

waterhemp = assay: Test C postemergence; format: in vivo, Amaranthus rudis
Procedure, shortened: as §3

## COc1nc(-c2ccccc2)nn1Cc1ccnc(C(F)(F)F)c1 [Compound 32]
Barnyardgrass [1]; 125 g ai/ha
  Plant response rating, Barnyardgrass: 20
Barnyardgrass [1]; 500 g ai/ha, approx. 10 d
  Plant response rating, Barnyardgrass: 80
foxtail, giant; 125 g ai/ha
  Plant response rating, Foxtail, Giant: 90
foxtail, giant; 500 g ai/ha, approx. 10 d
  Plant response rating, Foxtail, Giant: 100
pigweed; 125 g ai/ha
  Plant response rating, Pigweed: 90
pigweed; 500 g ai/ha
  Plant response rating, Pigweed: 100
wheat; 125 g ai/ha
  Plant response rating, Wheat: 0
wheat; 500 g ai/ha
  Plant response rating, Wheat: 20
sedge, umbrella
  Plant response rating, Sedge, Umbrella, Flood: 75
Barnyardgrass [2]
  Plant response rating, Barnyardgrass, Flood: 0
Barnyardgrass [3]; 125 g ai/ha
  Plant response rating (scale of 0 to 100 where 0 is no effect and 100 is complete control): 10
Barnyardgrass [3]; 250 g ai/ha
  Plant response rating (scale of 0 to 100 where 0 is no effect and 100 is complete control): 75
Barnyardgrass [3]; 31 g ai/ha
  Barnyardgrass plant response rating (0 to 100): 0
Barnyardgrass [3]; 62 g ai/ha
  Barnyardgrass plant response rating (0 to 100): 5
galium; 31 g ai/ha
  Plant response rating (scale of 0 to 100 where 0 is no effect and 100 is complete control): 20
galium; 62 g ai/ha
  Plant response rating (scale of 0 to 100 where 0 is no effect and 100 is complete control): 45
galium; 125 g ai/ha
  Plant response rating (scale of 0 to 100 where 0 is no effect and 100 is complete control): 60
galium; 250 g ai/ha
  Plant response rating (scale of 0 to 100 where 0 is no effect and 100 is complete control): 75
corn; 31 g ai/ha
  Plant response rating (scale of 0 to 100 where 0 is no effect and 100 is complete control): 10
corn; 62 g ai/ha
  Plant response rating (scale of 0 to 100 where 0 is no effect and 100 is complete control): 20
corn; 125 g ai/ha
  Plant response rating (scale of 0 to 100 where 0 is no effect and 100 is complete control): 25
corn; 250 g ai/ha
  Plant response rating (scale of 0 to 100 where 0 is no effect and 100 is complete control): 35
crabgrass, large; 31 g ai/ha
  Plant response rating (scale of 0 to 100 where 0 is no effect and 100 is complete control): 5
crabgrass, large; 62 g ai/ha
  Plant response rating (scale of 0 to 100 where 0 is no effect and 100 is complete control): 10
crabgrass, large; 125 g ai/ha
  Plant response rating (scale of 0 to 100 where 0 is no effect and 100 is complete control): 25
crabgrass, large; 250 g ai/ha
  Plant response rating (scale of 0 to 100 where 0 is no effect and 100 is complete control): 25
lambsquarters; 31 g ai/ha
  Plant response rating (scale of 0 to 100 where 0 is no effect and 100 is complete control): 100
lambsquarters; 62 g ai/ha
  Plant response rating (scale of 0 to 100 where 0 is no effect and 100 is complete control): 95
lambsquarters; 125 g ai/ha
  Plant response rating (scale of 0 to 100 where 0 is no effect and 100 is complete control): 100
lambsquarters; 250 g ai/ha
  Plant response rating (scale of 0 to 100 where 0 is no effect and 100 is complete control): 98
morningglory; 31 g ai/ha
  Plant response rating (scale of 0 to 100 where 0 is no effect and 100 is complete control): 80
morningglory; 62 g ai/ha
  Plant response rating (scale of 0 to 100 where 0 is no effect and 100 is complete control): 40
morningglory; 125 g ai/ha
  Plant response rating (scale of 0 to 100 where 0 is no effect and 100 is complete control): 80
morningglory; 250 g ai/ha
  Plant response rating (scale of 0 to 100 where 0 is no effect and 100 is complete control): 65
soybean; 31 g ai/ha
  Plant response rating (scale of 0 to 100 where 0 is no effect and 100 is complete control): 20
soybean; 62 g ai/ha
  Plant response rating (scale of 0 to 100 where 0 is no effect and 100 is complete control): 25
soybean; 125 g ai/ha
  Plant response rating (scale of 0 to 100 where 0 is no effect and 100 is complete control): 30
soybean; 250 g ai/ha
  Plant response rating (scale of 0 to 100 where 0 is no effect and 100 is complete control): 35
waterhemp; 31 g ai/ha
  Plant response rating (scale of 0 to 100 where 0 is no effect and 100 is complete control): 85
waterhemp; 62 g ai/ha
  Plant response rating (scale of 0 to 100 where 0 is no effect and 100 is complete control): 90
waterhemp; 125 g ai/ha
  Plant response rating (scale of 0 to 100 where 0 is no effect and 100 is complete control): 90
waterhemp; 250 g ai/ha
  Plant response rating (scale of 0 to 100 where 0 is no effect and 100 is complete control): 98
